In brackets after ≈: the same amount, converted by molar mass. Structures can show the parent of a compound that is named as a salt. Where two headings read alike, the source gives them in different places.
Key:
[1] = solubility of aclarubicin or its hydrochloride in solvents and in fats and oils; assay type: physicochemical; details: for solubility: organic solvent or mixture
[2] = solubilization of aclarubicin or aclarubicin hydro-chloride in fats and oils by acids; assay type: physicochemical

With `CC[C@@]1(O)C[C@H](O[C@H]2C[C@H](N(C)C)[C@H](O[C@H]3C[C@H](O)[C@H](O[C@H]4CCC(=O)[C@H](C)O4)[C@H](C)O3)[C@H](C)O2)c2c(cc3c(c2O)C(=O)c2c(O)cccc2C3=O)[C@H]1C(=O)OC` [Aclarubicin, methyl(1R, 2R, 4S)-2-ethyl-1,2,3,4,6,11-hexahydro-2,5,7-trihydroxy-6,11-dioxo-4-{[2,3,6-trideoxy-4-O-[2,6-dideoxy-4-O-((2R,6S)-tetrahydro-6-methyl-5-oxo-2H-pyran-2-yl)-α-1-lyxohexopyranocyl]-3-dimethylamino-α-1-lyxo-hexopyranocyl]oxy}-1-naphthacene carboxylate] the solubility ([1]; olive oil, olive oil, aclarubicin, read-out: solubility in olive oil) was 10000 µg/mL (≈ 12.3 mM) and the solubility ([1]; sesame oil, sesame oil, aclarubicin, read-out: solubility in sesame oil) was 10000 µg/mL (≈ 12.3 mM).

For `CC[C@@]1(O)C[C@H](O[C@H]2C[C@H](N(C)C)[C@H](O[C@H]3C[C@H](O)[C@H](O[C@H]4CCC(=O)[C@H](C)O4)[C@H](C)O3)[C@H](C)O2)c2c(cc3c(c2O)C(=O)c2c(O)cccc2C3=O)[C@H]1C(=O)OC` [Aclarubicin hydrochloride], the solubility in acetone ([1]; acetone) was “freely soluble”, the solubility in ether ([1]; ether) was “practically insoluble” and the “solubility in fats and oils” value ([1]; fats and oils) was “very sparingly soluble”. The solubility in methanol ([1]; methanol) was “freely soluble”, the solubility in n-hexane ([1]; n-hexane) was “practically insoluble” and the solubility ([1]; olive oil, olive oil, aclarubicin hydrochloride, read-out: solubility in olive oil) was roughly 4 µg/mL. For the same compound, the solubility ([1]; sesame oil, sesame oil, aclarubicin hydrochloride, read-out: solubility in sesame oil) was 16 µg/mL and the solubility in water ([1]; water) was “freely soluble”.

In the case of `O=C(O)/C=C/C(=O)O` [fumaric acid], the “dissolution of polycarboxylic acid in fats and oils” value [2] is reported as “not dissolved in fats and oils”.
